System: ovarian (MDAH2774) cancer cells
Experiment: Protein transfection efficiency by flow cytometry
Assay type: cell-based, human
Conditions: transfected using HEPES buffer (20-30 mM)
Procedure: FIG. 1 depicts the method of protein transfection in its simplest form: (A) proteins of interest and a protein transfection composition, such as HEPES buffer, are mixed and incubated for about 15 min to about 30 min (“the first incubation time”) to form a mixture. (B) Cells to be transfected are cultured with a first cultured medium comprising at least about 10% fetal bovine serum for about 24 hours, followed by the replacement of the first cultured medium with a minimal essential medium. (C) The mixture in step (A) is added to the cells in minimal essential medium in Step (B) and incubated at 37° C. for about 4 to about 24 hours (“the second incubation time”). (D) The protein transfection efficiency can be analyzed using various methods, such as immunofluorescent staining and flow cytometry. Flow cytometry: After protein transfection was completed, the cells in the culture dish were washed with PBS, trypsinized and pelleted. The cells were mixed with Fixation/Permeabilization (eBioscience, Inc., San Diego, Calif., USA) working solution and incubated at 4° C. for 30 min to 24 h. […] Cells were suspended in 1×PBS and analyzed by flow cytometry (BD Biosciences, Qume Drive San Jose, Calif., USA). […] The protein transfection efficiency can be analyzed using immunofluorescent staining or flow cytometry (Panel D). […]

Substance: rhSTIP1: v5-tagged recombinant human STIP1 protein (BiP-STIP1-V5-His), 62.6 kDa
- transfection efficiency: signal detected in % of the ovarian cancer cells: 99.6%
